Source: patent US20080248131A1 (Metaproteomics, LLC, priority 2005, published 2008)

Tests used:
[1] = tested on: human PI3K-β, PI3K-γ, and PI3K-δ; assay: PI3K isoform inhibition (Example 3); assay type: biochemical; conditions: 50 μg/ml
Experimental: Additionally examined was an Acacia nilotica heartwood extract. All compounds were tested at 50 μg/ml. The results are presented graphically as FIG. 3. […] Mg-IAA was approximately 3-fold more inhibitory to PI3K-β than to PI3K-γ or PI3K-δ.

[2] = tested on: adiponectin secretion, 3T3-L1 adipocytes; assay: Adiponectin secretion from insulin-resistant 3T3-L1 adipocytes; assay type: cell-based, murine
[3] = tested on: IL-6 secretion, 3T3-L1 adipocytes; assay: IL-6 secretion from TNFα-treated 3T3-L1 adipocytes; conditions: 10 ng TNFα/ml
[4] = tested on: adiponectin secretion, 3T3-L1 adipocytes; assay: Adiponectin secretion from TNFα-treated 3T3-L1 adipocytes; assay type: cell-based, murine; conditions: 10 ng TNFα/ml
Experimental: 3T3-L1 cells were seeded at an initial density of 1×10^4 cells/cm^2 in 96-well plates. For two days, the cells were allowed grow to reach confluence. Following confluence, the cells were forced to differentiate into adipocytes by the addition of differentiation medium; this medium consisted of (1) 10% FBS/DMEM (high glucose); (2) 0.5 mM methylisobutylxanthine; (3) 0.5 μM dexamethasone and (4) 10 μg/ml insulin (MDI medium). From Day 3 through Day 5, the medium was changed to post-differentiation medium consisting of 10% FBS in DMEM. […] On Day 6, the supernatant medium was sampled for adiponectin determination.
Statistical Calculations and Interpretation—All assays were preformed in duplicate. […] Differences among the doses and test agents were determined using the Student's t-test without correction for multiple comparisons; the nominal five percent probability of a type I error was selected.

[5] = tested on: NF-kBp65 nuclear translocation; assay: Nuclear NF-kBp65 in TNFα-treated 3T3-L1 adipocytes; assay type: cell-based, murine; conditions: three or 24 hours
Experimental: Cell Culture and Treatment—Following differentiation 3T3-L1 adipocytes were maintained in post-differentiation medium for an additional 40 days. […] Hops derivatives and the positive control pioglitazone were tested at concentrations of 2.5, and 5.0 μg/ml. Test materials were added 1 hour prior to and nuclear extracts were prepared three and 24 hours following treatment with TNFα.
ELISA—3T3-L1 adipocytes were maintained in growth media for 40 days following differentiation. Nuclear NF-kBp65 was determined using the TransAM™ NF-kB kit from Active Motif (Carlsbad, Calif.) was used with no modifications. Jurkat nuclear extracts provided in the kit were derived from cells cultured in medium supplemented with 50 ng/ml TPA (phorbol, 12-myristate, 13 acetate) and 0.5 μM calcium ionophore A23187 for two hours at 37° C. immediately prior to harvesting.
Protein assay—Nuclear protein was quantified using the Active Motif Fluorescent Protein Quantification Kit.

[6] = tested on: adiponectin secretion, 3T3-L1 adipocytes; assay: Adiponectin secretion in LPS/3T3-L1 adipocytes; assay type: cell-based, murine
DBA/J mice = assay: Collagen induced rheumatoid arthritis murine model, arthritic index; assay type: in vivo, mouse; conditions: 10 mg/kg
Experimental: The mice were injected intradermally on day 0 with a mixture containing 100 μg of type II collagen and 100 μg of Mycobacterium tuberculosis in squalene. A booster injection was repeated on day 21. Mice were examined on days 22-27 for arthritic signs with nonresponding mice removed from the study.
Arthritic symptomology was assessed (scored 0-4) for each paw using a arthritic index as described below. Under this arthritic index 0=no visible signs; 1=edema and/or erythema: single digit; 2=edema and or erythema: two joints; 3=edema and or erythema: more than two joints; and 4=severe arthritis of the entire paw and digits associated with ankylosis and deformity.

`COc1cc(O)c(CC=C(C)C)c(O)c1C(=O)/C=C/c1ccc(O)cc1` [xanthohumol] was tested, and the “effect on PI3K isoforms, in words” value [1] was “more inhibitory to PI3K-γ than to PI3K-β or PI3K-δ”.

With `CC(C)CCC1=C(O)C(C(=O)C(C)C)=C(O)C(CCC(C)C)(CCC(C)C)C1=O` [hexahydro colupulone] the “concentration of maximal observed adiponectin secretion” value [2] was 12.5 µg/mL.

`COc1ccc2c(c1)c(CC(=O)O)c(C)n2C(=O)c1ccc(Cl)cc1` [indomethacin] was tested, and the “IL-6 secretion in presence of TNFα, in words” value [3] was “no anti-inflammatory effect”.

In the case of `CCc1ccc(CCOc2ccc(CC3SC(=O)NC3=O)cc2)nc1` (centres unmarked) [pioglitazone], the “maximal restoration of adiponectin secretion, times the TNFα treatment” value [4] is reported as 1.47 times and the “nuclear NF-kBp65, in words” value [5] is reported as “did not inhibit”.

`O=C(O)c1ccccc1O` [salicylic acid] was tested, and the “adiponectin secretion in LPS-treated adipocytes, in words” value [6] was “failed to induce adiponectin secretion”.

For `C[C@]12C=CC(=O)C=C1CC[C@@H]1[C@@H]2[C@@H](O)C[C@@]2(C)[C@H]1CC[C@]2(O)C(=O)CO` [prednisolone], the “days with significant reduction of arthritic index” value (DBA/J mice) was “days 30-42”.

With `CC(=O)Oc1ccccc1C(=O)O` [Aspirin, aspirin] the “adiponectin secretion in LPS-treated adipocytes, in words” value [6] was “failed to induce adiponectin secretion”.
